Measurements from patent US20050038113A1, “Valproic acid and derivatives for the combinatorial therapeutic treatment of human cancers and for the treatment of tumor metastasis and minimal residual disease” (G2M Cancer Drugs AG, priority 2001, published 2005).

Legend:
[1] = test system: SKOV3 ovarian carcinoma cells; assay: MTT cell viability assay; type: cell-based, Human; conditions: 40 h
Method: Human SKBR3 breast carcinoma cells, A431 squamous cell carcinoma cells and SKOV3 ovarian carcinoma cells were maintained in Dulbecco's modified Eagle's medium (DMEM, BioWhittaker, Verviers, Belgium) supplemented with 10% heat-inactivated fetal bovine serum (FBS), 2 mM L-glutamine, 100 units/ml penicillin, and 100 μg/ml streptomycin.
Tumor cells were seeded in 96 well plates at a density of 1×10^4 cells/well in normal growth medium. SKBR3, A431 and SKOV3 cells were treated for 40 h with valproic acid at a final concentration of 3 mM, or 10 ng/ml of the recombinant anti-ErbB2 single chain antibody-toxin scFv(FRP5)-ETA (Wels et al., Cancer Res. 52: 6310-6317, 1992), or 10 ng/ml of the recombinant anti-EGF receptor single chain antibody-toxin scFv(14E1)-ETA (Schmidt et al., Brit. J. Cancer 75: 1575-1584, 1997), or a combination of valproic acid with either scFv(FRP5)-ETA or scFv(14E1)-ETA at the same concentrations. […] After solubilization of the formazan product, the absorption at 590 nm was determined in a microplate reader (Dynatech, Denkendorf, Germany) and the relative amount of viable cells in comparison to cells cultured without the addition of valproic acid or antibody-toxins was calculated.

[2] = used as an antiepileptic drug during pregnancy; cited from earlier work
[3] = test system: COLO320DM colon cancer cells; assay: SRB-assay, reduction in total cellular biomass; type: cell-based, human; conditions: 0.75 mM VPA in combination with Camptothecin, 48 hours
Method: (§1) The reduction in cellular biomass was measured by SRB-assay. For this assay cells were seeded in 96 well culture dishes at densities between 3000 and 8000 cells per well. […] Cultures were fixed with cold TCA producing a final TCA concentration of 10%. After 1 hour of incubation at 4° C. the cells were washed five times with water and air dried. Fixed cells were stained for 30 minutes with 0,4% (wt/vol) Sulforhodamine B (SRB) dissolved in 1% acetic acid and washed four times with 1% acetic acid to remove unbound dye. After air drying bound dye was solubilized with 10 mM unbuffered Tris base (pH 10,5) for 5 minutes. Optical densities were read on a Titertek Multiskan Plus spectrophotometric plate reader at 550 nm. Six test wells for each dose-response were set in parallel with 12 growth control wells per cell line. A measure of the cell population density at time 0 (To; the time at which the drug was added) was also made from 12 extra reference wells of cells fixed with TCA just prior to drug addition to the test plates. Background OD of complete medium with 5% FBS fixed and stained as described above was also determined in 12 separate wells. From the unprocessed OD data from each microtiter plate the background OD measurements (i.e. OD of complete medium plus stain and OD of cells at T0) were subtracted thus giving the reduction of cellular biomass of the cells.

[4] = test system: A-549 non-small cell lung cancer cells; assay: SRB-assay, reduction in total cellular biomass; type: cell-based, human; conditions: 0.75 mM VPA in combination with Gemcitabine, 48 hours, compared to either alone
Method: as §1

[5] = test system: wild-type cells (hematopoietic progenitor cells); assay: X-ray sensitivity, colonies in methylcellulose; type: cell-based, Murine; conditions: VPA 1 mM, X-ray 2 Gy
Method: Lin- cells were transduced as described for FIG. 11 (see also methods in example 10 for details), and sorted by FACS. 12 hours after sorting, cells were washed with PBS, and then incubated for 8-12 hours in medium with cytokines [data presented in FIG. 12 using IL-3 (20 ng/ml), IL-6 (20 ng/ml), SCF (100 ng/ml), G-CSF (60 ng/ml), GM-CSF (20 ng/ml)] or without cytokines (data not shown). […] Finally, cells were plated in methylcellulose containing medium (StemCell Technologies) in the presence of cytokines (IL3, IL6, SCF, G- and GM-CSF) for 8-10 days. For FIG. 12 uninfected cells (“Control”), or cells expressing GFP alone (“Empty Vector”), or cells expressing GFP and PML-RAR (“PML-RAR”) were used. 8 days after plating in methylcellulose, the total number of colonies was measured.

[6] = test system: control cells (lin-, PINCO empty vector or uninfected); assay: myeloid differentiation (Mac-1, FACS) of transduced hematopoietic progenitors; type: cell-based, Murine
Method: Murine hematopoietic progenitors (lin-) were transduced with a retroviral vector encoding PML-RAR, and GFP as a marker. […] Myeloid differentiation was scored by analyzing the presence of the differentiation marker Mac-1.
Murine hematopoietic progenitors were purified from the bone marrow of 129 mice on the basis of the absence of lineage differentiation markers (lin-). Lin- cells were grown for 48 hours in the presence of IL-3 (20 ng/ml), IL-6 (20 ng/ml), SCF (100 ng/ml), and then attached to non-tissue culture treated plates coated with Retronectin (Takara-Shuzo). Cells were then transduced by incubation with the supernatant from Phoenix ecotropic packaging cells (supplemented with fresh serum, and IL-3, IL-6, and SCF as above), transiently transfected with the control retroviral vector PINCO, or PINCO-PML-RAR. After 60 hours, GFP+cells were sorted by FACS, and seeded in methylcellulose plates supplemented as above, plus G-CSF (60 ng/ml) and GM-CSF (20 ng/ml). […] After 8-10 days, cells were analyzed for the presence of the myeloid differentiation marker Mac-1 by FACS. […] Uninfected cells, and cells infected with the control PINCO vector behaved identically (data not shown).
For FIG. 11 Lin- cells were transduced with the indicated vectors (control: PINCO, empty vector encoding GFP alone), and GFP+cells were sorted by FACS. […] Differentiation was assessed after 8-10 days by analysis of the myeloid differentiation marker Mac-1.

In the case of `CCCC(CCC)C(=O)O` [VPA, 2-propylpentanoic acid], the “cell viability, combination treatment” value ([1]; 3 mM valproic acid + 10 ng/ml scFv(FRP5)-ETA) is listed as “pronounced additive therapeutic effect”, the cell viability ([1]; single reagent, valproic acid 3 mM, scFv(FRP5)-ETA 10 ng/ml) is listed as “inhibit the viability” and the “birth defects (neural tube closure defects and other malformations) in born children” value [2] is listed as “a few percent”. The “reduction in cellular biomass” value [3] was “clear reduction in cellular biomass”, the “reduction in cellular biomass” value [4] was “clear additive reduction in cellular biomass” and the X-ray sensitivity [5] was “slightly decreased the sensitivity”. For the same molecule, the number of colonies ([6]; VPA at higher concentrations (>3 mM), most likely induction of cell death, data not shown) was “reduction in the number of colonies”, the “number of Mac-1+ cells and number of colonies” value ([6]; VPA up to concentrations of 1 mM) was “did not cause significant changes” and the “differentiation of control cells” value ([6]; VPA with cytokines) was “did not affect differentiation”.
